# Experimental data from patent publication US7579359B2, “1-alkoxy 1H-imidazo ring systems and methods” (3M Innovative Properties Company, priority 2004, dated 2009).
row,melting point [°C],SMILES
1,175 to 178,"CC(C)On1c(C2CCCCC2)nc2c(N)nc3ccccc3c21 [Example 12, 2-Cyclohexyl-1-isopropoxy-1H-imidazo[4,5-c]quinolin-4-amine]"
2,177 to 179,"CC(C)On1c(C(C)C)nc2c(N)nc3ccccc3c21 [Example 26, 1-Isopropoxy-2-isopropyl-1H-imidazo[4,5-c]quinolin-4-amine]"
3,197 to 199,"CCCCc1nc2c(N)nc3ccccc3c2n1OC [Example 27, 2-Butyl-1-methoxy-1H-imidazo[4,5-c]quinolin-4-amine]"
4,177 to 179,"Nc1nc2ccccc2c2c1nc(-c1ccccc1)n2OCc1ccccc1 [Example 16, 1-(Benzyloxy)-2-phenyl-1H-imidazo[4,5-c]quinolin-4-amine]"
5,217 to 219,"COn1c(C(C)C)nc2c(N)nc3ccccc3c21 [Example 25, 2-Isopropyl-1-methoxy-1H-imidazo[4,5-c]quinolin-4-amine]"
6,237 to 239,"Cc1nc2c(N)nc3ccccc3c2n1OCCOc1ccccc1 [Example 31, 2-Methyl-1-(2-phenoxyethoxy)-1H-imidazo[4,5-c]quinolin-4-amine]"
7,220 to 222,"COn1c(C2CCCCC2)nc2c(N)nc3ccccc3c21 [Example 13, 2-Cyclohexyl-1-methoxy-1H-imidazo[4,5-c]quinolin-4-amine]"
8,241 to 243,"COn1c(-c2ccccc2)nc2c(N)nc3ccccc3c21 [Example 10, 1-Methoxy-2-phenyl-1H-imidazo[4,5-c]quinolin-4-amine]"
9,198 to 199,"CCCc1nc2c(N)nc3ccccc3c2n1OCC [Example 3, 1-Ethoxy-2-propyl-1H-imidazo[4,5-c]quinolin-4-amine]"
10,232 to 235,"CCCc1nc2c(N)nc3ccccc3c2n1O [Example 24, 4-Amino-2-propyl-1H-imidazo[4,5-c]quinolin-1-ol]"
11,204 to 206,CC(C)On1c(CO)nc2c(N)nc3ccccc3c21 [Example 19]
12,242 to 243,"CCc1nc2c(N)nc3ccccc3c2n1OC(C)C [Example 5, 2-Ethyl-1-isopropoxy-1H-imidazo[4,5-c]quinolin-4-amine]"
13,188 to 191,"CC(C)On1c(-c2ccccc2)nc2c(N)nc3ccccc3c21 [Example 11, 1-Isopropoxy-2-phenyl-1H-imidazo[4,5-c]quinolin-4-amine]"
14,215 to 217,"Cc1nc2c(N)nc3ccccc3c2n1OCc1ccccc1[N+](=O)[O-] [Example 29, 2-Methyl-1-[(2-nitrobenzyl)oxy]-1H-imidazo[4,5-c]quinolin-4-amine]"
15,219 to 221,"CCOn1c(C)nc2c(N)nc3ccccc3c21 [Example 9, 1-Ethoxy-2-methyl-1H-imidazo[4,5-c]quinolin-4-amine]"
16,118 to 119,"CCCCc1nc2c(N)nc3ccccc3c2n1OC(C)C [Example 28, 2-Butyl-1-isopropoxy-1H-imidazo[4,5-c]quinolin-4-amine]"

# The remaining lines, values behind:
row,SMILES,melting point [°C]
1,"CCCc1nc2c(N)nc3ccccc3c2n1OCC(N)=O [Example 33, 2-[(4-Amino-2-propyl-1H-imidazo[4,5-c]quinolin-1-yl)oxy]acetamide]",192 to 194
2,"COn1c(C)nc2c(N)nc3ccccc3c21 [Example 7, 1-Methoxy-2-methyl-1H-imidazo[4,5-c]quinolin-4-amine]",237 to 238
3,"Cc1nc2c(N)nc3ccccc3c2n1OC(C)(C)C [Example 30, 1-tert-Butoxy-2-methyl-1H-imidazo[4,5-c]quinolin-4-amine]",255 to 257
4,"Cc1nc2c(N)nc3ccccc3c2n1OCC(C)C [Example 8, 1-Isobutoxy-2-methyl-1H-imidazo[4,5-c]quinolin-4-amine]",215 to 216
5,"COn1cnc2c(N)nc3ccccc3c21 [Example 22, 1-Methoxy-1H-imidazo[4,5-c]quinolin-4-amine]",238 to 240
6,"CCOn1cnc2c(N)nc3ccccc3c21 [Example 20, 1-Ethoxy-1H-imidazo[4,5-c]quinolin-4-amine]",179 to 181
7,"CCCc1nc2c(N)nc3ccccc3c2n1OCc1ccccc1 [Example 2, 1-Benzyloxy-2-propyl-1H-imidazo[4,5-c]quinolin-4-amine]",164 to 166
8,"CCOCc1nc2c(N)nc3ccccc3c2n1OC(C)C [Example 18, 2-(Ethoxymethyl)-1-isopropoxy-1H-imidazo[4,5-c]quinolin-4-amine]",179 to 181
9,"CC(C)On1cnc2c(N)nc3ccccc3c21 [Example 23, 1-Isopropoxy-1H-imidazo[4,5-c]quinolin-4-amine]",224 to 225
10,"Cc1nc2c(N)nc3ccccc3c2n1OC(C)C [Example 6, 1-Isopropoxy-2-methyl-1H-imidazo[4,5-c]quinolin-4-amine]",243
11,"CC(C)On1c(C(C)(C)C)nc2c(N)nc3ccccc3c21 [Example 14, 2-Tert-butyl-1-isopropoxy-1H-imidazo[4,5-c]quinolin-4-amine]",187 to 189
12,"CCc1nc2c(N)nc3ccccc3c2n1OC [Example 4, 2-Ethyl-1-methoxy-1H-imidazo[4,5-c]quinolin-4-amine]",216 to 217
13,"CCCc1nc2c(N)nc3ccccc3c2n1OC [Example 1, 1-Methoxy-2-propyl-1H-imidazo[4,5-c]quinolin-4-amine]",210 to 211
14,"COn1c(C(C)(C)C)nc2c(N)nc3ccccc3c21 [Example 15, 2-Tert-butyl-1-methoxy-1H-imidazo[4,5-c]quinolin-4-amine]",195 to 197
